Several values for one entry are separate records, joined by “and”; a condition that tells them apart may be missing. Equal values may be shown once.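 A five-concentration, 48-hour dose response in 96-well plates underlies each endpoint, interpolated linearly between surrounding concentrations. Abbreviation: GI50, concentration required for 50% inhibition of growth. TGI marks complete inhibition of growth.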

One test has as its system SF-295 CNS. Put plainly: NCI tumour cell line growth inhibition, 48 h.
Molecule `C[C@@]12C[C@@H](c3ccccc3O1)N1CCCCSC1=N2` gave a TGI above 100 µM.

Molecule `C=C1c2nc3ccccc3n2C=C(c2ccccc2)N1c1ccc([N+](=O)[O-])cc1` came in with a TGI of 18.5 µM.

Regarding `Cc1c2cnccc2c(C)c2c1c1ccccc1n2CCCN`, the GI50 was 0.285 µM and 0.24 µM; the TGI is 0.865 µM and 1.24 µM.

For `O=c1[nH][nH]c(=O)n1Cc1ccccc1Cn1c(=O)[nH][nH]c1=O`, the TGI is above 100 µM.

The molecule `O=C(NNC(=O)c1ccccc1SSc1ccccc1C(=O)NNC(=O)c1ccccc1S)c1ccccc1S` had a TGI above 100 µM.

`CN1CCN([C@H]2C[C@H]3[C@@H]4CC=C5C[C@@H](O)CC[C@]5(C)[C@H]4CC[C@]3(C)C2=O)CC1` yielded a TGI above 100 µM.

`C=C(C1=CC(=O)C(C)(C)O1)[C@@H]1CC=C([C@@H]2CC[C@H]3[C@@]2(C)CC[C@H]2C(C)(C)C(=O)[C@H](O)C[C@]32C)[C@H](O)O1` had a TGI of 22 µM.

`CCNC(=S)N/N=C/c1cc([N+](=O)[O-])ccc1O` displayed a TGI above 100 µM.

Molecule `Cc1cc(O)c2c(=O)c3ccccc3[nH]c2c1` displayed a TGI of 51.2 µM.

For `Oc1cccc2c(Cl)ccnc12`, the TGI was above 100 µM.

`Clc1cc(OC2C3CC4CC(C3)CC2C4)nc(Cl)n1` (centres undefined) returned a TGI of 37.7 µM.

As for `Cc1cccc(/C=N/NC(=S)Nc2ccccc2)n1`, the TGI was above 100 µM.

Consider `CCCN=C1CCN(Cc2ccccc2)c2ccccc2N1`, for which the TGI was 95.3 µM.

On to `CC(C)c1ccc(/C=C2/C=C(c3ccc4ccccc4c3)OC2=O)cc1`, for which the TGI was above 100 µM.

For `COc1cc(/C=C/C(=N\NS(=O)(=O)c2ccc(C)cc2)c2sc(NNC(C)=O)nc2C)ccc1O`, the TGI is above 100 µM.

The molecule `Oc1ccc(-c2nc(-c3cccnc3)c(-c3ccc(F)cc3)[nH]2)cc1` had a TGI of 32 µM.

Molecule `CC(C)/C(Cl)=N\OC(=O)Nc1ccc(S(N)(=O)=O)cc1` returned a TGI of 29.3 µM.

As to `CNC(=O)OCC1=C(COC(=O)NC)C(C)N(c2ccc(OC)cc2)C1` (centres undefined), the TGI was above 100 µM.

`N#CC1=C(N)N(c2ccccc2)C(c2ccco2)C1(C#N)C#N` (centres undefined) registered a TGI of 93.9 µM.

`O=S1(=O)NC(=NCc2c[nH]c3ccccc23)N(c2ccccc2)c2ccncc21` returned a TGI above 100 µM.

Molecule `Cc1ccsc1/C=N/Nc1ncccn1` returned a TGI above 100 µM.

As to `Nc1cccc2cc(Cl)cnc12`, the TGI was above 100 µM.

In turn, `COc1c(C)c(C/C=C(\C)CCCCO[Si](c2ccccc2)(c2ccccc2)C(C)(C)C)c(OC)c(OC)c1OC` had a TGI above 46.4 µM.

The test system of the next test is NCI-H460 lung. Put plainly: NCI tumour cell line growth inhibition, 48 h.
Molecule `C[C@@]12C[C@@H](c3ccccc3O1)N1CCCCSC1=N2` had a TGI above 100 µM.

As to `C=C1c2nc3ccccc3n2C=C(c2ccccc2)N1c1ccc([N+](=O)[O-])cc1`, the TGI came out at 6.6 µM.

As for `Cc1c2cnccc2c(C)c2c1c1ccccc1n2CCCN`, the GI50 is 0.113 µM and 0.0472 µM; the TGI was 0.335 µM and 0.22 µM.

The molecule `O=c1[nH][nH]c(=O)n1Cc1ccccc1Cn1c(=O)[nH][nH]c1=O` came in with a TGI above 100 µM.

With `O=C(NNC(=O)c1ccccc1SSc1ccccc1C(=O)NNC(=O)c1ccccc1S)c1ccccc1S`, the TGI is above 100 µM.

Take `CN1CCN([C@H]2C[C@H]3[C@@H]4CC=C5C[C@@H](O)CC[C@]5(C)[C@H]4CC[C@]3(C)C2=O)CC1`: the TGI is above 100 µM.

In turn, `C=C(C1=CC(=O)C(C)(C)O1)[C@@H]1CC=C([C@@H]2CC[C@H]3[C@@]2(C)CC[C@H]2C(C)(C)C(=O)[C@H](O)C[C@]32C)[C@H](O)O1` displayed a TGI of 31.6 µM.

For `CCNC(=S)N/N=C/c1cc([N+](=O)[O-])ccc1O`, the TGI was above 100 µM.

For the molecule `Cc1cc(O)c2c(=O)c3ccccc3[nH]c2c1`, the TGI was above 100 µM.

`Oc1cccc2c(Cl)ccnc12` registered a TGI above 100 µM.

Consider `Clc1cc(OC2C3CC4CC(C3)CC2C4)nc(Cl)n1` (centres undefined), for which the TGI was 31.6 µM.

For `Cc1cccc(/C=N/NC(=S)Nc2ccccc2)n1`, the TGI worked out at 9.13 µM.

For `CCCN=C1CCN(Cc2ccccc2)c2ccccc2N1`, the TGI was found to be 36.3 µM.

In turn, `CC(C)c1ccc(/C=C2/C=C(c3ccc4ccccc4c3)OC2=O)cc1` registered a TGI above 100 µM.

In the case of `COc1cc(/C=C/C(=N\NS(=O)(=O)c2ccc(C)cc2)c2sc(NNC(C)=O)nc2C)ccc1O`, the TGI was above 100 µM.

As for `Oc1ccc(-c2nc(-c3cccnc3)c(-c3ccc(F)cc3)[nH]2)cc1`, the TGI is 63.9 µM.

`CC(C)/C(Cl)=N\OC(=O)Nc1ccc(S(N)(=O)=O)cc1` had a TGI of 41.6 µM.

On to `CNC(=O)OCC1=C(COC(=O)NC)C(C)N(c2ccc(OC)cc2)C1` (centres undefined), for which the TGI is above 100 µM.

Regarding `O=S1(=O)NC(=NCc2c[nH]c3ccccc23)N(c2ccccc2)c2ccncc21`, the TGI was above 100 µM.

`Nc1cccc2cc(Cl)cnc12` registered a TGI above 100 µM.

`COc1c(C)c(C/C=C(\C)CCCCO[Si](c2ccccc2)(c2ccccc2)C(C)(C)C)c(OC)c(OC)c1OC` yielded a TGI of 25 µM.

A further test deals with UO-31 renal. Put plainly: NCI tumour cell line growth inhibition, 48 h.
With `C[C@@]12C[C@@H](c3ccccc3O1)N1CCCCSC1=N2`, the TGI is above 100 µM.

In turn, `C=C1c2nc3ccccc3n2C=C(c2ccccc2)N1c1ccc([N+](=O)[O-])cc1` gave a TGI of 16 µM.

`Cc1c2cnccc2c(C)c2c1c1ccccc1n2CCCN`: the GI50 was 0.0685 µM; the TGI is 1.88 µM and 0.225 µM.

In turn, `O=c1[nH][nH]c(=O)n1Cc1ccccc1Cn1c(=O)[nH][nH]c1=O` had a TGI above 100 µM.

For the molecule `O=C(NNC(=O)c1ccccc1SSc1ccccc1C(=O)NNC(=O)c1ccccc1S)c1ccccc1S`, the TGI was above 100 µM.

For `CN1CCN([C@H]2C[C@H]3[C@@H]4CC=C5C[C@@H](O)CC[C@]5(C)[C@H]4CC[C@]3(C)C2=O)CC1`, the TGI is above 100 µM.

Molecule `C=C(C1=CC(=O)C(C)(C)O1)[C@@H]1CC=C([C@@H]2CC[C@H]3[C@@]2(C)CC[C@H]2C(C)(C)C(=O)[C@H](O)C[C@]32C)[C@H](O)O1` gave a TGI of 2.88 µM.

Molecule `CCNC(=S)N/N=C/c1cc([N+](=O)[O-])ccc1O` showed a TGI above 100 µM.

For `Oc1cccc2c(Cl)ccnc12`, the TGI is above 95.3 µM.

For the molecule `Clc1cc(OC2C3CC4CC(C3)CC2C4)nc(Cl)n1` (centres undefined), the TGI came to 10.8 µM.

With `Cc1cccc(/C=N/NC(=S)Nc2ccccc2)n1`, the TGI was above 31.2 µM.

The molecule `CCCN=C1CCN(Cc2ccccc2)c2ccccc2N1` came in with a TGI above 100 µM.

Consider `CC(C)c1ccc(/C=C2/C=C(c3ccc4ccccc4c3)OC2=O)cc1`, for which the TGI is above 100 µM.

In turn, `COc1cc(/C=C/C(=N\NS(=O)(=O)c2ccc(C)cc2)c2sc(NNC(C)=O)nc2C)ccc1O` returned a TGI above 100 µM.

The molecule `CC(C)/C(Cl)=N\OC(=O)Nc1ccc(S(N)(=O)=O)cc1` displayed a TGI of 30.2 µM.

Molecule `CNC(=O)OCC1=C(COC(=O)NC)C(C)N(c2ccc(OC)cc2)C1` (centres undefined) displayed a TGI above 100 µM.

`N#CC1=C(N)N(c2ccccc2)C(c2ccco2)C1(C#N)C#N` (centres undefined) returned a TGI of 33.6 µM.

In the case of `O=S1(=O)NC(=NCc2c[nH]c3ccccc23)N(c2ccccc2)c2ccncc21`, the TGI is above 100 µM.

Molecule `Cc1ccsc1/C=N/Nc1ncccn1` yielded a TGI above 100 µM.

The molecule `Nc1cccc2cc(Cl)cnc12` returned a TGI above 100 µM.

As to `COc1c(C)c(C/C=C(\C)CCCCO[Si](c2ccccc2)(c2ccccc2)C(C)(C)C)c(OC)c(OC)c1OC`, the TGI stood at 19.4 µM.

A further test has as its system MOLT-4 leukemia. Put plainly: NCI tumour cell line growth inhibition, 48 h.
For the molecule `C[C@@]12C[C@@H](c3ccccc3O1)N1CCCCSC1=N2`, the TGI was above 100 µM.
